Test results as given in paper PMC12186844 (ACS Chemical Neuroscience, 2025).
Positions count from the first letter of the chain named.

Experiments:
SNAP-D2SR N52^1.50A = SNAP-D2SR N52^1.50A (Homo sapiens, UniProt P14416, N52A); experiment: functional cAMP assay, BRET biosensor; assay type: cell-based
Experimental: (§1) Flp-In-CHO cells stably coexpressing the CAMYEL biosensor and DRs were plated into white 96-well CulturPlates (Revvity) and grown overnight. The cells were equilibrated in Hank’s balanced salt solution (HBSS) at 37 °C (or 25 °C when indicated) before starting the experiment. The cells were costimulated with the agonists and 10 μM forskolin for the indicated time frames when the BRET readings were captured. Coelenterazine (Nanolight Technology, AZ) was added at a final concentration of 5 μM at least 3 min prior to measurement. […] Net BRET was determined by subtraction of the vehicle control coadded with 10 μM forskolin.
(§2) Dose–response curves were fitted using the following three-parameter equation: response=bottom+top−bottom/1+10^(logEC50−log[A]) 5 where top and bottom represent the maximal and minimal asymptote of the dose response curve, [A] is the molar concentration of the agonist, and EC50 is the molar concentration of the agonist required to give a response half-way between bottom and top.

SNAP-D2SR WT [1] = target: T1, SNAP-D2SR WT (Homo sapiens, UniProt P14416); experiment: cell membrane [3H]spiperone assay
Experimental: (§3) Flp-In-CHO cells stably expressing the wild-type or mutant DRs were grown to 90% confluence in 175 cm^2 cell culture flasks. The cells were harvested in PBS containing 2 mM EDTA and centrifuged at 300g for 3 min. The resulting pellet was resuspended in ice-cold assay buffer (20 mM HEPES, 100 mM NaCl, 6 mM MgCl2, 1 mM EGTA, and 1 mM EDTA, pH 7.4), and the centrifugation step was repeated. The intact cell pellet was then resuspended in assay buffer and homogenized using a Polytron homogenizer. After centrifugation (1000g, 10 min), the pellet was discarded, and the supernatant was recentrifuged at 30,000g for 1 h at 4 °C using a Sorvall Evolution RC ultracentrifuge (Thermo Scientific). The resulting pellet was resuspended in assay buffer and stored in 250 μL aliquots at −80 °C. Membrane protein concentration was determined using a Pierce’s BCA protein assay kit (Thermo Fisher, Melbourne).
[^3H]­Spiperone binding experiments using cell membranes were conducted in a 200 μL reaction volume in assay buffer (20 mM HEPES, 100 mM NaCl, 6 mM MgCl2, 1 mM EGTA, and 1 mM EDTA, pH 7.4) containing 100 μM GppNHp and 0.1% ascorbic acid in 96-well plates. […] In all cases, nonspecific binding was determined in the presence of 10 μM haloperidol. To obtain affinity estimates of unlabeled agonists, competition binding experiments were performed at equilibrium. […] After this incubation period, bound and free radioligands were separated by fast-flow filtration through UniFilter-96 GF/B plates using a MicroBeta FilterMate harvester (Revvity) followed by three washes with ice-cold 0.9% NaCl. Filter bound radioactivity was detected as a chemiluminescence after the addition of MicroScint-20 (Revvity) in a MicroBeta plate counter (Revvity).
IC50 values obtained from the inhibition curves were converted to Ki values using the Cheng and Prusoff equation.

D2LR = D2LR (Homo sapiens, UniProt P14416); experiment: ERK1/2 phosphorylation assay; assay type: cell-based; conditions: pERK1/2
Experimental: Flp-In-CHO cells stably expressing the D2LR were seeded into 96-well plates at a density of 50,000 cells/well. After 5 h, cells were washed with phosphate-buffered saline (PBS) and incubated in serum-free DMEM overnight before assaying. […] Stimulation of the cells was terminated by removing the medium followed by the addition of 100 μL of SureFire lysis buffer (PerkinElmer) to each well. The plate was shaken for 5 min at RT before 5 μL of the lysates was transferred to a white 384-well ProxiPlate (PerkinElmer). Then, 8 μL of a 240:1440:7:7 mixture of Surefire activation buffer:Surefire reaction buffer:AlphaScreen acceptor beads:AlphaScreen donor beads was added to the samples and incubated in the dark at 37 °C for 1.5 h. Plates were read using a Fusion plate reader.

SNAP-D2SR S121^3.39A = target: T2, SNAP-D2SR S121^3.39A (Homo sapiens, UniProt P14416, S121A); experiment: functional cAMP assay, BRET biosensor; assay type: cell-based
T2 sequence (P14416 1-414 isoform P14416-2 S121A): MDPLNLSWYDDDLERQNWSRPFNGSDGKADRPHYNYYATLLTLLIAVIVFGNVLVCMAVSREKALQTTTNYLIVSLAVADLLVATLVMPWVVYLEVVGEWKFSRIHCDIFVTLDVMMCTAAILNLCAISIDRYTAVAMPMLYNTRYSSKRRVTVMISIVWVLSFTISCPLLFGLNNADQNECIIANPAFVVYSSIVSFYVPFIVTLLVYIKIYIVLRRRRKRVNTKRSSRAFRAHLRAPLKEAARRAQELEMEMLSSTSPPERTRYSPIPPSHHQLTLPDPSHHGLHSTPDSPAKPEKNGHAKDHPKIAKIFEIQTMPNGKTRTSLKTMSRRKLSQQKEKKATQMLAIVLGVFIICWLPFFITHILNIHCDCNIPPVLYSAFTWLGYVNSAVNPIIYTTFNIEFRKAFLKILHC
Experimental: as §1, §2

SNAP-D2SR C118^3.36A = target: T3, SNAP-D2SR C118^3.36A (Homo sapiens, UniProt P14416, C118A); experiment: functional cAMP assay, BRET biosensor; assay type: cell-based
T3 sequence (P14416 1-414 isoform P14416-2 C118A): T2 sequence (P14416 1-414 isoform P14416-2 S121A) with C118A, A121S
Experimental: as §1, §2

D4.4R = D4.4R (Homo sapiens, UniProt P21917); experiment: cell membrane [3H]spiperone binding assay
Experimental: as §3
[^3H]­Spiperone binding experiments using cell membranes were conducted in a 200 μL reaction volume in assay buffer (20 mM HEPES, 100 mM NaCl, 6 mM MgCl2, 1 mM EGTA, and 1 mM EDTA, pH 7.4) containing 100 μM GppNHp and 0.1% ascorbic acid in 96-well plates. […] In all cases, nonspecific binding was determined in the presence of 10 μM haloperidol. […] Filter bound radioactivity was detected as a chemiluminescence after the addition of MicroScint-20 (Revvity) in a MicroBeta plate counter (Revvity).

SNAP-D2SR L54^1.52A = SNAP-D2SR L54^1.52A (Homo sapiens, UniProt P14416, L54A); experiment: cell membrane [3H]spiperone assay
Experimental: as §3
(§4) [^3H]­Spiperone binding experiments using cell membranes were conducted in a 200 μL reaction volume in assay buffer (20 mM HEPES, 100 mM NaCl, 6 mM MgCl2, 1 mM EGTA, and 1 mM EDTA, pH 7.4) containing 100 μM GppNHp and 0.1% ascorbic acid in 96-well plates. […] In all cases, nonspecific binding was determined in the presence of 10 μM haloperidol. […] Filter bound radioactivity was detected as a chemiluminescence after the addition of MicroScint-20 (Revvity) in a MicroBeta plate counter (Revvity). […]

SNAP-D2SR G51^1.49A = SNAP-D2SR G51^1.49A (Homo sapiens, UniProt P14416, G51A); experiment: cell membrane [3H]spiperone assay
Experimental: as §3, §4

SNAP-D2SR F408^8.54A = SNAP-D2SR F408^8.54A (Homo sapiens, UniProt P14416, F437A); experiment: cell membrane [3H]spiperone assay
Experimental: as §3, §4

D2R = target: T4, D2R (Homo sapiens, UniProt P14416); experiment: D2R internalization whole cell ELISA; assay type: cell-based
T4 construct: expressed in transfected cells; host or cells: CHO cells stably overexpressing GRK2, transient

SNAP-D2SR WT [2] = target: T1, SNAP-D2SR WT; experiment: functional cAMP assay, BRET biosensor; assay type: cell-based
Experimental: as §1, §2

SNAP-D2SR N393^7.49A = SNAP-D2SR N393^7.49A (Homo sapiens, UniProt P14416, N422A); experiment: cell membrane [3H]spiperone assay
Experimental: as §3, §4

[3] = read-out: D2 PAM2 KB (converted)

T4 sequence (P14416 whole entry): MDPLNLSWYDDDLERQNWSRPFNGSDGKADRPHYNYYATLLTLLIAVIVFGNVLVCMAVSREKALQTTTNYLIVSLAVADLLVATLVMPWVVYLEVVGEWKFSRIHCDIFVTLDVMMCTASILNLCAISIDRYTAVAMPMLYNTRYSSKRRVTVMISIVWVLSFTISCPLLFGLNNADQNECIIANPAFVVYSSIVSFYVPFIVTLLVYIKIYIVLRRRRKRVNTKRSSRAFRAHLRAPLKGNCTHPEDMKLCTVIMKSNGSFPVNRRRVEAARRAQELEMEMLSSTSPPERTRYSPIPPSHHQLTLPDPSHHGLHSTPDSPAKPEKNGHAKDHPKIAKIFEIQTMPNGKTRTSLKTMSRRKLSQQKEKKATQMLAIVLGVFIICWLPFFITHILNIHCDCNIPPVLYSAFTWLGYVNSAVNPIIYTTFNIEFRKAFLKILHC
Sequence of D2LR (P14416 whole entry, the tested form may be a part): as the sequence (P14416 whole entry) above
Sequence of SNAP-D2SR N52^1.50A (P14416 1-414 isoform P14416-2 N52A): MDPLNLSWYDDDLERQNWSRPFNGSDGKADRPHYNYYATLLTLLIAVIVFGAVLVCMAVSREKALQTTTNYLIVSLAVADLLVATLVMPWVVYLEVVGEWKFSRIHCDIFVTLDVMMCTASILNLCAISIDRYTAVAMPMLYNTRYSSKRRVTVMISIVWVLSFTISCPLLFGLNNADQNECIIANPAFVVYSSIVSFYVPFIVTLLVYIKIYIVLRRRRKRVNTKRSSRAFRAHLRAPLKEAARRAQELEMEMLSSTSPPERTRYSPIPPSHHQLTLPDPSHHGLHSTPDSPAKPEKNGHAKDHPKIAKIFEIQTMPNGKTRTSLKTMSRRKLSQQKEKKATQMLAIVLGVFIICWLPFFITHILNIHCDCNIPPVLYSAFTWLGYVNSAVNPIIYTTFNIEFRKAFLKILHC
T1 sequence (P14416 1-414 isoform P14416-2): as the sequence (P14416 1-414 isoform P14416-2 N52A) above, with A52N counted along it
Sequence of SNAP-D2SR G51^1.49A (P14416 1-414 isoform P14416-2 G51A): as the sequence (P14416 1-414 isoform P14416-2 N52A) above, with G51A, A52N counted along it
Sequence of SNAP-D2SR N393^7.49A (P14416 1-414 isoform P14416-2 N393A): as the sequence (P14416 1-414 isoform P14416-2 N52A) above, with A52N, N393A counted along it
Sequence of SNAP-D2SR F408^8.54A (P14416 1-414 isoform P14416-2 F408A): as the sequence (P14416 1-414 isoform P14416-2 N52A) above, with A52N, F408A counted along it
Sequence of SNAP-D2SR L54^1.52A (P14416 1-414 isoform P14416-2 L54A): as the sequence (P14416 1-414 isoform P14416-2 N52A) above, with A52N, L54A counted along it
Sequence of D4.4R (P21917 whole entry): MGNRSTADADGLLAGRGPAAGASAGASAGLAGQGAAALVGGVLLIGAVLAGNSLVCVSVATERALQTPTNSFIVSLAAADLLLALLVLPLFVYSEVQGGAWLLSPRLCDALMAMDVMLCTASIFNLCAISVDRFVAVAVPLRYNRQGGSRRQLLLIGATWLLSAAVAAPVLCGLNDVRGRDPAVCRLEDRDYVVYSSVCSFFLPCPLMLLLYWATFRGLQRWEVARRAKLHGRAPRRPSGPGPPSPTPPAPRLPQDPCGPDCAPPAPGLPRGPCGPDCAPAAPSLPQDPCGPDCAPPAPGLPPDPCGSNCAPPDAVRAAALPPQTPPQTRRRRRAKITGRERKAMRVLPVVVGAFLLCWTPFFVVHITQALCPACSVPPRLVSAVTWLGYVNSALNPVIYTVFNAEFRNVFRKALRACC

- D2 PAM2 log τ (SNAP-D2SR N52^1.50A): 0.23 ± 0.07
- D2 PAM2 pKB (SNAP-D2SR N52^1.50A): 4.89 ± 0.21
- D2 PAM2 τ (SNAP-D2SR N52^1.50A): 1.69
- Kb (SNAP-D2SR N52^1.50A; [3]): 12.8 µM
- D2 PAM2 log αβ (SNAP-D2SR N52^1.50A; with DA): 1.18 ± 0.28
- D2 PAM2 αβ (SNAP-D2SR N52^1.50A; with DA): 15
- pKB (SNAP-D2SR WT [1]; [3H]spiperone competition binding interaction experiment): 5.04 ± 0.17
- Kb (SNAP-D2SR WT [1]; binding interaction experiment): 9 µM
- log α (SNAP-D2SR WT [1]; cooperativity with DA, binding): 1.05 ± 0.10
- α (SNAP-D2SR WT [1]; cooperativity with DA, binding): 11
- fold shift + 10 μM PAM (SNAP-D2SR WT [1]; shift of DA IC50): 9 fold
- ΔpIC50 + 10 μM PAM (SNAP-D2SR WT [1]; shift of DA pIC50): 0.97 ± 0.20
- pKB (D2LR): 5.36 ± 0.13
- LogτB (D2LR; intrinsic efficacy): 0.18 ± 0.03
- Logαβ (D2LR; with dopamine): 1.37 ± 0.12
- D2 PAM2 log τ (SNAP-D2SR S121^3.39A): –1.18 ± 0.15
- D2 PAM2 pKB (SNAP-D2SR S121^3.39A): 4.83 ± 0.11
- D2 PAM2 τ (SNAP-D2SR S121^3.39A): 0.06
- Kb (SNAP-D2SR S121^3.39A; [3]): 15 µM
- D2 PAM2 log αβ (SNAP-D2SR S121^3.39A; with DA): 1.14 ± 0.06
- D2 PAM2 αβ (SNAP-D2SR S121^3.39A; with DA): 14
- D2 PAM2 log τ (SNAP-D2SR C118^3.36A): –0.24 ± 0.05
- D2 PAM2 pKB (SNAP-D2SR C118^3.36A): 4.82 ± 0.15
- D2 PAM2 τ (SNAP-D2SR C118^3.36A): 0.57
- Kb (SNAP-D2SR C118^3.36A; [3]): 15 µM
- D2 PAM2 log αβ (SNAP-D2SR C118^3.36A; with DA): 1.30 ± 0.13
- D2 PAM2 αβ (SNAP-D2SR C118^3.36A; with DA): 20
- ability to potentiate DA binding at the D4R (D4.4R): no activity was observed
- fold shift + 10 μM PAM (SNAP-D2SR L54^1.52A; shift of DA IC50): 1.3 fold
- ΔpIC50 + 10 μM PAM (SNAP-D2SR L54^1.52A; shift of DA pIC50): 0.10 ± 0.11
- fold shift + 10 μM PAM (SNAP-D2SR G51^1.49A; shift of DA IC50): 0.8 fold
- ΔpIC50 + 10 μM PAM (SNAP-D2SR G51^1.49A; shift of DA pIC50): –0.08 ± 0.17
- fold shift + 10 μM PAM (SNAP-D2SR F408^8.54A; shift of DA IC50): 0.85 fold
- ΔpIC50 + 10 μM PAM (SNAP-D2SR F408^8.54A; shift of DA pIC50): –0.07 ± 0.14
- pKB (D2R): 5.30 ± 0.29
- LogτB (D2R; intrinsic efficacy): -2.20 ± 0.23
- Logαβ (D2R; with dopamine): 0.99 ± 0.21
- D2 PAM2 log τ (SNAP-D2SR WT [2]): 0.06 ± 0.05
- D2 PAM2 pKB (SNAP-D2SR WT [2]): 5.02 ± 0.14
- D2 PAM2 τ (SNAP-D2SR WT [2]): 1
- Logτ (SNAP-D2SR WT [2]; S13): 0.14 ± 0.10
- pKB (SNAP-D2SR WT [2]; S13): 4.93 ± 0.22
- τ (SNAP-D2SR WT [2]; S13): 1.38
- Kb (SNAP-D2SR WT [2]; S13, read-out: KB): 11.7 µM
- Logαβ (SNAP-D2SR WT [2]; S13, with DA): 1.60 ± 0.25
- αβ (SNAP-D2SR WT [2]; S13, with DA): 39.8
- Kb (SNAP-D2SR WT [2]; Table 2, read-out: D2 PAM2 KB (converted)): 9.5 µM
- D2 PAM2 log αβ (SNAP-D2SR WT [2]; with DA): 1.25 ± 0.14
- D2 PAM2 αβ (SNAP-D2SR WT [2]; with DA): 18
- fold shift + 10 μM PAM (SNAP-D2SR N393^7.49A; shift of DA IC50): 0.8 fold
- ΔpIC50 + 10 μM PAM (SNAP-D2SR N393^7.49A; shift of DA pIC50): –0.08 ± 0.10
Compound: COc1cc(CO)c(F)cc1C(=O)n1ccc2c(F)cccc21 [D2 PAM2, [5-fluoro-4-(hydroxymethyl)-2-methoxyphenyl]-(4-fluoro-1H-indol-1-yl)methanone]
